Results as given in patent publication US6362370B1, “Wood preservatives” (Lonza AG, priority 1996, dated 2002).

Experiments:
[1] = Penetration depth in sapwood blocks after immersion in aqueous QAC solution; format: physicochemical; conditions: sapwood blocks 2.5 cm×5.0 cm×12 cm, immersion in 5% strength aqueous solution, 24 hours at 20° C.
Protocol: Fine sapwood blocks of dimensions 2.5 cm×5.0 cm×12 cm were impregnated with the QAC shown in the table by immersion in an aqueous solution of in each case 5% strength. The immersion time was a standard 24 hours (at 20° C.).

[2] = tested on: fungus-infested soil (forest soil); experiment: Soil burying method according to Schwammkeller: service life of impregnated beechwood bars; conditions: beechwood bars 1 cm×1 cm×40 cm, immersion in 0.5% strength solution for 24 hours, buried in fungus-infested soil, time until flexural breaking strength has fallen to 25% of the initial value
Protocol: Bars of beechwood (1 cm×1 cm×40 cm) were impregnated by immersion in a 0.5% strength solution of the SAC for 24 hours and then tested by the soil burying method according to Schwammkeller. For this, treated and untreated timbers were buried in fungus-infested soil (forest soil). The service life here is defined as the time after which the flexural breaking strength has fallen to 25% of the initial value of (untreated) comparison timbers of the same dimensions and type of wood.

Row | Substance | Penetration depth [1] | Service life [2] [months] | Service life ([2]; listed as 10) [months] | Service life ([2]; listed as V5) [months]
1 | N,N-didecyl-N-methyl-N-(polyoxyethyl)ammonium [Example 9] | 6-8 mm | – | – | –
2 | N,N-didecyl-N-methyl-N-(polyoxyethyl)ammonium [Example V3, reference compound] | 2-3 mm | 4 | – | –
3 | N,N-didecyl-N-methyl-N-(polyoxyethyl)ammonium [Example V4, reference compound] | 3-4 mm | – | – | –
4 | N,N-didecyl-N-methyl-N-(polyoxyethyl)ammonium hydroxyacetate [Example 8] | 7-10 mm | – | – | –
5 | N,N-didecyl-N-methyl-N-(polyoxyethyl)ammonium lactate [Example 7] | 7-8 mm | >9 | – | –
6 | N,N-dimethyl-N-benzyl-N-(coconut alkyl)ammonium [Example 5] | 6-8 mm | – | >9 | –
7 | N,N-dimethyl-N-benzyl-N-(coconut alkyl)ammonium [Example 6] | 7-8 mm | – | – | –
8 | N,N-dimethyl-N-benzyl-N-(coconut alkyl)ammonium [Example V1, reference compound] | 1-3 mm | – | – | 3
9 | N,N-dimethyl-N-benzyl-N-(coconut alkyl)ammonium [Example V2, reference compound] | 2-3 mm | – | – | –
